Five compounds from patent US4581355A, “3-indolecarboxamides for control of circulatory diseases” (Yoshitomi Pharmaceutical Industries, Ltd., priority 1983, dated 1986) can be followed below.

For data set [1], the system named is mice. The data set is described as follows: acute toxicity in male mice. It is filed as in vivo. Conditions: observed for 5 days. The source says:
The acute toxicity of the compounds of the present invention was studied in 5 male mice weighing 30 to 45 g.

The target of data set [2] is 5-lipoxygenase. The data set is described as follows: 5-lipoxygenase inhibition (method of Yoshimoto et al.). It is filed as biochemical. Conditions: read-out: 50% inhibitory concentration on 5-lipoxygenase. The source says:
According to the pharmacological experiment conducted by the method of Yoshimoto et al. which is described in Biochem. Biophys. Res. Commum., vol. 107, p.

Data set [3] deals with left ventricular pressure max dP/dt. Put plainly: cardiotonic activity (max dP/dt) in anesthetized dogs. Conditions: injected into left coronary artery. It is filed as in vivo. How it is done:
The experiment on cardiotonic activity of the compounds of the present invention was conducted as follows: Dogs were anesthetized with sodium pentobarbital and heparin was administered intraveneously. The left venticular pressure and its max dP/dt were measured. Test compounds were injected at a volume of 10 to 30 μl into a catheter inserted into left coronary artery. The effects of test compounds on max dP/dt were shown as ED30, a dose required to increase max dP/dt by 30% of the effects of 0.1 μg is isoproterenol.

In data set [4] the test system is central nervous system. Put plainly: sedative activity by electroencephalograms in rabbits. It is filed as in vivo. Conditions: from the intraperitoneal dose of 3 mg/kg.

Regarding `Cc1[nH]c2ccc(O)cc2c1C(=O)NC1CCN(CCc2ccccc2)CC1` [Example 2, 5-hydroxy-2-methyl-N-[1-(2-phenylethyl)-4-piperidyl]indole-3-carboxamide], in data set [1] (oral 1000 mg/kg), the mortality entry is reported as “All animals survived”. In addition, the IC50 in data set [2] was found to be 0.44 µM.

Regarding `Cc1[nH]c2ccc(O)cc2c1C(=O)NC1CCN(CCCc2ccccc2)CC1` [Example 3, 5-hydroxy-2-methyl-N-[1-(3-phenylpropyl)-4-piperidyl]indole-3-carboxamide], the IC50 in data set [2] was 0.18 µM. Moreover, in data set [3], the “ED30, dose required to increase max dP/dt by 30% of the effects of 0.1 μg isoproterenol” value is 50 µg.

For `Cc1[nH]c2ccc(O)cc2c1C(=O)NC1CCN(CCCc2ccc(O)cc2)CC1` [Example 35, 5-Hydroxy-2-methyl-N-[1-(3-(p-hydroxyphenyl)propyl)-4-piperidyl]indole-3-carboxamide], the “ED30, dose required to increase max dP/dt by 30% of the effects of 0.1 μg isoproterenol” value in data set [3] was 36 µg.

On to `O=C(NC1CCN(CCc2c[nH]c3ccccc23)CC1)c1ccccc1` [indoramin, 3-[2-(4-benzamido-1-piperidyl)ethyl]indole, reference compound], for which the mortality result in data set [1] (oral 500 mg/kg) was “all mice died”. Moreover, the “changes on electroencephalograms (sedative activity)” value in data set [4] is “trend toward slow wave”.

`C[C@@H]1O[C@@H](O[C@H]2C[C@@H](O)[C@]3(CO)[C@H]4[C@H](O)C[C@]5(C)[C@@H](C6=CC(=O)OC6)CC[C@]5(O)[C@@H]4CC[C@]3(O)C2)[C@H](O)[C@H](O)[C@H]1O` [ouabain, reference compound]: the “ED30, dose required to increase max dP/dt by 30% of the effects of 0.1 μg isoproterenol” value in data set [3] worked out at 60 µg.
